Experimental findings from US6831199B1, “Pyrimidine compounds and derivatives thereof” (G. D. Searle & Co., priority 1995, dated 2004) are described below.

Structures can show the parent of a compound that is named as a salt. Where two headings read alike, the source gives them in different places. Bounds are passed on as bounds.

One assay deals with M21 human melanoma cells. Description: M21 melanoma cell adhesion assay (αvβ3-dependent adhesion to human fibrinogen-coated plates). The assay is classed as cell-based. How it is done:
M21 MELANOMA CELL ADHESION ASSASY
This assay involves an αvβ3-dependent adhesion of M21 human melanoma cells to human fibrinogen-coated plastic tissue culture dishes.
Fibrinogen was purified from human plasma. Fibronectin and plasminogen were eliminated from the preparation by passing the sample over gelatin-sepharose 4B and lysine-sepharose 4B resins, respectively. The fibrinogen is diluted to 10 μg/mL in coating buffer ([…] Tris-HCl, 150 mM NaCl, pH 7.4). 100 μL of diluted fibrinogen is added to each well of a 96-well Immulon 2 microtiter plate (Dynatech; Chantilly, Va.) and allowed to coat overnight at 4° C. Plates are blocked with 1% BSA (Miles/Pentex; Kankakee, Ill.) in adhesion buffer (Hank's balanced salt solution without Ca^++ or Mg^++ [HBSS−−], 50 mM Hepes, 1 mg/mL BSA, pH 7.4) for 1 hour at 37° C.
M21 human melanoma cells were provided by Dr. J. Smith, La Jolla Cancer Research Institute. M21 cells are harvested from tissue culture flasks by washing with HBSS−− and adding cell dissociation solution (Sigma) and incubating for 5 minutes at 37° C. Harvested cells are washed 3 times with adhesion assay buffer containing 200 μM Mn^++. Cells are counted and suspended to a density of 2×10^6/mL in adhesion assay buffer containing 200 μM Mn^++. M21 cells are pre-incubated with antagonists of αvβ3 for 30 minutes at room temperature. Following the pre-incubation, the solutions containing a mixture of cells and antagonists are added to each well of the microtiter plate and allowed to bind for 30 minutes at 37° C.
Following adhesion, plates are gently washed 3 times with 200 μL of wash buffer (50 mM Tris-HCl, 150 mM NaCl, pH 7.4) using large bore pipet tips. Plates are briefly blotted dry and 100 μL of cell lysis buffer (50 mM sodium acetate, pH 5.0, 0.5% Triton X-100, 0.3 mg/mL p-nitrophenyl phosphate [Sigma] is added to each well. Plates are incubated for 60 minutes at 37° C. and 50 μL of 1N NaOH is added to stop the reaction. The absorbance of the wells at […] is read using an automatic plate reader.

Assay [1] addresses T1, Human vitronectin receptor (αvβ3) (Homo sapiens, UniProt P05106+P06756).
T1 construct: Human vitronectin receptor (αvβ3) was purified from human placenta; from tissue; host or cells: human placenta
Put plainly: Vitronectin adhesion assay (solid phase receptor assay, competition with biotinylated vitronectin). The assay is classed as binding. Summed up:
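Purified human αvβ3 coated overnight at 4 °C in TBS with 1.0 mM Ca++, Mg++, Mn++, pH 7.4; compounds (top final 1.0×10^−4 M) competed with 1 nM biotinylated vitronectin for 2 h at room temperature. Bound ligand detected by HRP anti-biotin/OPD at A450; values normalized to no-competitor controls, four-parameter curve fit.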

In the next assay the test system is platelet rich plasma. Put plainly: Human platelet rich plasma assay (ADP induced platelet aggregation). The class given is cell-based. Conditions: read-out: Human PRP. The gist of the method:
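Citrated platelet-rich plasma from aspirin-free healthy human donors was stirred at 37 °C and preincubated with compound for 1 min. Aggregation was then triggered with ADP (added as a 200 uM solution) and recorded photometrically for 3 min. Dose–response curves were built from % inhibition of the maximal saline-control response.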

In assay [2] the target is T2, Human fibrinogen receptor (αIIbβ3) (Homo sapiens, UniProt P05106+P08514).
T2 construct: Human fibrinogen receptor (αIIbβ3) was purified from outdated platelets; from tissue; host or cells: outdated human platelets
Put plainly: Purified IIb/IIIa receptor assay (solid phase receptor assay, competition with biotinylated vitronectin). The assay is classed as binding. The gist of the method: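 Purified platelet αIIbβ3 coated overnight at 4 °C in TBS with 1.0 mM Ca/Mg/Mn, pH 7.4, then BSA-blocked. Compounds (top 1.0×10^−4 M) competed with 1 nM biotinylated vitronectin for 2 h at room temperature. Bound label detected by HRP anti-biotin, A450; values normalized to no-competitor controls, four-parameter fit.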

[3] abbreviates: Homo sapiens, M21, read-out: M21 Melanoma Cells IC50.
Setting [4] is: trifluoroacetate salt, read-out: M21 Melanoma Cells IC50.

Turning to `N=C(N)Nc1cccc(C(=O)NCC(=O)NC(CC(=O)O)c2cccnc2)c1` (racemic) [Example 2, (±)β-[[2-[[[3-[(aminoiminomethyl)amino]phenyl]carbonyl]amino]acetyl]amino]pyridine-3-propanoic acid, bis(trifluoroacetate)salt], the IC50 was 0.25 nM in the assay with M21 human melanoma cells (setting [3]); 0.54 nM in assay [1] (read-out: AvB3 IC50); 200000 nM in the assay with platelet rich plasma (Homo sapiens, Platelet); 51.2 nM in assay [2] (read-out: IIb/IIIa IC50).

Consider `NC(=O)Nc1cccc(C(=O)NCC(=O)NC(CC(=O)O)c2cccnc2)c1` (stereo not drawn) [Example 110, β-[[2-[[[3-(aminocarbonylamino)phenyl]carbonyl]amino]acetyl]amino]pyridine-3-propanoic acid, trifluoroacetate salt], for which the IC50 in the assay on M21 human melanoma cells (setting [4]) is 177 nM; in assay [1] (read-out: AvB3 IC50) it was 4.5 nM; in the assay with platelet rich plasma (ADP induced platelet aggregation in human platelet rich plasma), > 200000 nM; in assay [2] (read-out: IIb/IIIa IC50), 1860 nM.

As to `N=C(N)Nc1cccc(C(=O)NCC(=O)N[C@H](COC(=O)c2ccccc2N)CC(=O)O)c1` [Example 94, 2S-[[2-[[[3-[[aminoiminomethyl]amino]phenyl]carbonyl]amino]acetyl]amino]-3-carboxypropyl 2-aminobenzoate, bis(trifluoroacetate)salt, monohydrate], the IC50 in the assay with M21 human melanoma cells (setting [3]) is 1 nM; in assay [1] (AvB3 IC50) it was 1.16 nM; in the assay with platelet rich plasma (Homo sapiens, Platelet), > 200000 nM; in assay [2] (IIb/IIIa IC50) it was 101 nM.

As to `C#C[C@H](CC(=O)O)NC(=O)CNC(=O)c1cccc(NC(=N)N)c1` [Example 69, 3S-[[2-[[[3-[(aminoiminomethyl)amino]phenyl]carbonyl]amino]acetyl]amino]-4-pentynoic acid, trifluoroacetate salt], the IC50 in the assay with M21 human melanoma cells (setting [4]) is 0.95 nM; in assay [1] (read-out: AvB3 IC50) it was 0.92 nM; with platelet rich plasma (ADP induced platelet aggregation in human platelet rich plasma, trifluoroacetate salt) it was > 200000 nM; in assay [2] (read-out: IIb/IIIa IC50) it was 33.6 nM.
